Experimental data as given in patent US10947196B2, “Beta adrenergic agonist and methods of using the same” (CURASEN THERAPEUTICS, INC., priority 2019, dated 2021).
Read-outs that look alike come from different tables or passages of the source.

How the values were obtained:
β1-adrenergic receptor = β1-adrenergic receptor (Homo sapiens (Human), UniProt P08588); assay: cAMP Gs dynamic HTRF assay, β1 expressing CHO cells; format: cell-based; conditions: B1-AR
Description: (§1) cAMP homogeneous time-resolved fluorescence (HTRF). Compound efficacy was determined using the cAMP Gs dynamic HTRF assay (Cisbio, catalog #62AM4PEC) largely following the manufacturer's instructions, also detailed below.
(§2) Compound preparation. […] Standard serial dilution curves were 10-point, 5-fold dilutions starting from a highest concentration of 10 μM. […] Assay plates were centrifuged at 500×g for 10 seconds. Compounds and IBMX were prepared at 2× final dose to compensate for addition of cells.
(§3) Cell preparation. 1× stimulation buffer, washing PBS (Dulbecco's phosphate-buffered saline, −Mg −Ca; Caisson Labs, catalog #PBL01), assay PBS (Dulbecco's phosphate-buffered saline, +Mg, +Ca; Caisson Labs, catalog #PBL02) and Versene (0.02% EDTA disodium salt solution in PBS without calcium or magnesium; Caisson Labs, catalog #EDL01) were pre-warmed to 37° C. Cells expressing beta-adrenergic receptor were washed in washing PBS to remove growth medium and then released from the surface by incubating with Versene for 5-10 minutes at 37° C. Cells were harvested using assay PBS, counted manually by hemocytometer or by an automated cell counter, pelleted by centrifugation (200×g, 5 minutes) and resuspended in 37° C. 1× stimulation buffer to a final density of 1.5×10^6 cells/mL. 5 μL of the suspended cell solution (7500 cell total) were added to all wells of the 384 well assay plate, the assay plate was covered with an Axygen® plate seal (Corning PCR-SP) and incubated in a humidified 37° C. environment supplemented with 5% CO2 for 30 minutes.
(§4) HTRF reagent addition, reading and data analysis. After 30 minutes of cell stimulation with test compound, the assay plates were centrifuged at 500×g for 10 seconds, and incubation was stopped with the addition of 5 μL cAMP-D2 acceptor, diluted 1:21 in detection and lysis buffer 2 (Cisbio 62CL2FDF) was added to all cells. Subsequently, 5 μL Anti-cAMP-Eu Donor, diluted 1:21 in detection and lysis buffer 2, was added to cells. Plates were sealed and reactions gently ‘vortexed’ at 900 rpm on a Heidolph Titramax 1000 for at least 30 minutes at room temperature. Plates were centrifuged again at 500×g for 10 seconds, and HTRF was measured using a Tecan Spark plate reader at 50 flashes per well. […] Potency estimates (EC50) were derived from the four-parameter nonlinear regression of the concentration-effect curve and an estimate of relative efficacy was determined by comparing the magnitude of the test compound HTRF signal window (min−max dose) with the signal window of the full agonist control, isoproterenol.

β2 adrenergic receptor = β2 adrenergic receptor (Homo sapiens (Human), UniProt P07550); assay: cAMP Gs dynamic HTRF assay, β2 expressing CHO cells; format: cell-based; conditions: B2-AR
β2 adrenergic receptor, sequence (P07550 whole entry, species assumed): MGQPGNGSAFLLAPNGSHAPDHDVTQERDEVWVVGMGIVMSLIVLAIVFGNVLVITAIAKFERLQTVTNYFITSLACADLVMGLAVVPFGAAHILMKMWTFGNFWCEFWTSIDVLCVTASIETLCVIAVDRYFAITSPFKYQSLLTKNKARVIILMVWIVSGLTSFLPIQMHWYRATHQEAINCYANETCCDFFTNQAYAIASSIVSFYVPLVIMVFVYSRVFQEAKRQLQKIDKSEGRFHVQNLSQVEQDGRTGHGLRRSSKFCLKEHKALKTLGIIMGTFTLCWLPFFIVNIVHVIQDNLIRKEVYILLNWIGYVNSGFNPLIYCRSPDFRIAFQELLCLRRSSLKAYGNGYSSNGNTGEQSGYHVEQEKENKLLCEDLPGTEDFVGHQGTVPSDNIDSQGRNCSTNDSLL
Description: as §1, §2, §3, §4

[1] = CHO-K cells, read-out: Average EC50 [Receptor subtype: B1-AR, Cell type: CHO-K]
[2] = CHO-K1 (HitHunter), read-out: Average pEC50 [Receptor subtype: B2-AR, Cell type: CHO-K1 (HitHunter)] (converted)
[3] = CHO-K cells, read-out: Average EC50 [Receptor subtype: B2-AR, Cell type: CHO-K]
[4] = CHO-K1 (HitHunter), read-out: Average pEC50 [Receptor subtype: B1-AR, Cell type: CHO-K1 (HitHunter)] (converted)

β1-adrenergic receptor, sequence (P08588 whole entry, species assumed): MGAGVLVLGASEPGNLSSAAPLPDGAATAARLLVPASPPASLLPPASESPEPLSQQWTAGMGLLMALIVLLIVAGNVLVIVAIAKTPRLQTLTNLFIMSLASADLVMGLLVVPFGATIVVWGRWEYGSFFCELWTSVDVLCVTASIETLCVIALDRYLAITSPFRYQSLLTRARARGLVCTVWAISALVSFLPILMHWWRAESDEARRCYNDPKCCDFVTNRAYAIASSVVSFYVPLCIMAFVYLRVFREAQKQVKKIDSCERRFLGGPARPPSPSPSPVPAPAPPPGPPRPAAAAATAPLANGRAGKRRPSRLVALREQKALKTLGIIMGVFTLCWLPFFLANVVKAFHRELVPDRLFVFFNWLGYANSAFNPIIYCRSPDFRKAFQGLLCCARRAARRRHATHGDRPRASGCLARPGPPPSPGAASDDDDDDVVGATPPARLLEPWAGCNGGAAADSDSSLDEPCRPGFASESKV

| SMILES | EC50 (β2 adrenergic receptor; [2]) [µM] | EC50 (β2 adrenergic receptor; [3]) [µM] | also measured |
| --- | --- | --- | --- |
| CC(C)(C)NC[C@H](O)c1cccc(-c2nnn[nH]2)n1 [Compound 03-18] | – | – | Average pEC50 [Receptor subtype: B1-AR; Cell type: CHO-K1 (HitHunter)] (β1-adrenergic receptor; CHO-K1 (HitHunter)): D (D < 6); EC50 (β1-adrenergic receptor; [1]): > 1 µM |
| CC(C)(C)NC[C@@H](O)c1ccc(C#N)c(C(F)(F)F)n1 [Compound 03-31] | > 1 | > 1 | – |
| CC(C)(C)NC[C@H](O)c1cc(C(F)(F)F)cnc1C1CCCC1 [Compound 03-78] | – | – | EC50 (β1-adrenergic receptor; [4]): < 0.01 µM |
| CC(C)(C)NC[C@H](O)c1cccnc1C(C)(C)C [Compound 03-79] | > 1 | – | – |
| Cc1cc([C@@H](O)CNC(C)(C)C)ccn1 [Compound 03-108] | > 1 | – | – |
| Cc1ncccc1[C@H](O)CNC(C)(C)C [Compound 03-116] | > 1 | > 1 | – |
| CC(C)(C)NC[C@H](O)c1cccnc1C(F)(F)F [Compound 03-118] | 0.1 to 1 | 0.1 to 1 | – |
| CC(C)(C)NC[C@H](O)c1cccc(-c2ccc(Cl)cc2)n1 [Compound 03-119] | – | – | Average pEC50 [Receptor subtype: B1-AR; Cell type: CHO-K1 (HitHunter)] (β1-adrenergic receptor; CHO-K1 (HitHunter)): C (C = <7-6); EC50 (β1-adrenergic receptor; [1]): 0.1 to 1 µM |
| CC(C)(C)NC[C@@H](O)c1cccc(-c2cccc(F)c2)n1 [Compound 03-132] | – | – | Average pEC50 [Receptor subtype: B1-AR; Cell type: CHO-K1 (HitHunter)] (β1-adrenergic receptor; CHO-K1 (HitHunter)): D (D < 6); EC50 (β1-adrenergic receptor; [1]): > 1 µM |
| CC(C)(C)NC[C@@H](O)c1cccc(N2CCCCC2)n1 [Compound 03-138] | – | – | EC50 (β1-adrenergic receptor; [4]): > 1 µM; EC50 (β1-adrenergic receptor; [1]): > 1 µM |
| CN1CCN(c2cccc([C@@H](O)CNC(C)(C)C)n2)CC1 [Compound 03-139] | – | – | Average pEC50 [Receptor subtype: B1-AR; Cell type: CHO-K1 (HitHunter)] (β1-adrenergic receptor; CHO-K1 (HitHunter)): D (D < 6); EC50 (β1-adrenergic receptor; [1]): > 1 µM |
| CC(C)(C)NC[C@@H](O)c1cccc(-c2ccc(F)cc2)n1 [Compound 03-146] | – | – | EC50 (β1-adrenergic receptor; [4]): 0.1 to 1 µM; EC50 (β1-adrenergic receptor; [1]): 0.1 to 1 µM |
| CCOc1cccc([C@H](O)CNC(C)(C)C)n1 [Compound 03-178] | 0.1 to 1 | 0.1 to 1 | – |
| CC(C)(C)NC[C@@H](O)c1nccc2ccccc12 [Compound 03-187] | – | > 1 | – |
| CC(=O)Nc1cccc([C@@H](O)CNC(C)(C)C)n1 [Compound 03-194] | > 1 | – | – |
| CC(C)(C)NC[C@@H](O)c1ccc(C#N)cn1 [Compound 03-222] | > 1 | – | – |
| Cn1cc(-c2cccc([C@H](O)CNC(C)(C)C)n2)cn1 [Compound 03-224] | 0.1 to 1 | – | – |
| CC(C)(C)NC[C@H](O)c1ccnc(C(F)(F)F)c1 [Compound 03-227] | > 1 | – | – |
| CC(C)(C)NC[C@@H](O)c1cccc(NC2CCCC2)n1 [Compound 03-236] | 0.1 to 1 | – | – |
| CC(C)(C)NC[C@H](O)c1ccncc1C(F)(F)F [Compound 03-242] | > 1 | – | – |

Continued, in another order:

| EC50 (β2 adrenergic receptor; [2]) [µM] | EC50 (β2 adrenergic receptor; [3]) [µM] | SMILES | also measured |
| --- | --- | --- | --- |
| > 1 | > 1 | CN(C)c1ncccc1[C@@H](O)CNC(C)(C)C [Compound 03-56] | – |
| > 1 | > 1 | CC(C)(C)NC[C@H](O)c1cccnc1-c1cccc(F)c1 [Compound 03-61] | – |
| > 1 | – | CC(C)(C)NC[C@H](O)c1cccnc1C1=CCCC1 [Compound 03-62] | – |
| > 1 | – | CCNc1ncccc1[C@@H](O)CNC(C)(C)C [Compound 03-73] | – |
| > 1 | – | Cc1cnc(C2CCCC2)c([C@@H](O)CNC(C)(C)C)c1 [Compound 03-77] | – |
| > 1 | – | CC(C)(C)NC[C@H](O)c1cccnc1CC(F)(F)F [Compound 03-84] | – |
| > 1 | > 1 | CC(C)(C)NCC(O)c1cccnc1C(=O)NC(C)(C)C (centres unmarked) [Compound 03-112] | – |
| > 1 | > 1 | CC(C)(C)NCC(O)c1cccnc1C(=O)O (centres unmarked) [Compound 03-113] | – |
| 0.01 to 0.1 | 0.01 to 0.1 | CC(C)(C)NC[C@@H](O)c1cccc(N2CC3CCCC3C2)n1 (some centres unmarked) [Compound 03-136] | – |
| – | > 1 | CC(C)(C)NC[C@H](O)c1nc(C(F)(F)F)cc2ccccc12 [Compound 03-171] | – |
| 0.1 to 1 | 0.1 to 1 | CC(C)Oc1cccc([C@H](O)CNC(C)(C)C)n1 [Compound 03-180] | – |
| > 1 | – | OC(CNC1(C(F)(F)F)CC1)c1cccc(C(F)(F)F)n1 (centres unmarked) [Compound 03-218] | – |
| > 1 | – | CC(C)(C)NC[C@H](O)c1cccc(C(=O)O)n1 [Compound 03-240] | – |
| > 1 | – | CC(C)(C)N(O)C[C@H](O)c1cccc(C(N)=O)n1 [Compound 03-245] | – |
